Where “and” joins values, the source holds several entries; their conditions need not be identical. Identical values can stand only once. Numbers after ± are expanded uncertainties.
Assays:
[1] = refractive index (Na D-line) (dimensionless); settings: 293.15 K; 101.33 kPa; Liquid; Standard Abbe refractometry
[2] = Liquid; for mass density: 293.15 K, 101.33 kPa, Vibrating tube method; for vapor or sublimation pressure: Ebulliometric method (Recirculating still)

C[S+](C)[O-] [dimethyl sulfoxide]
Settings	mass density [kg/m3]	refractive index
[1]	–	1.4751 ± 0.004
[2]	1101 ± 2	–

[2]
Settings	vapor or sublimation pressure
401.95 K	15.28 ± 1 kPa
405.11 K	17.11 ± 1 kPa
408.75 K	19.42 ± 1 kPa
411.45 K	21.32 ± 1 kPa
414.6 K	23.72 ± 1 kPa
419.36 K	27.76 ± 1 kPa
421.15 K	29.41 ± 1 kPa
424.1 K	32.35 ± 1 kPa
430.45 K	39.43 ± 1 kPa
433.59 K	43.43 ± 1 kPa
436.75 K	47.75 ± 1 kPa
439.92 K	52.42 ± 1 kPa
442.85 K	57.05 ± 1 kPa
447.83 K	65.75 ± 1 kPa
455.74 K	81.72 ± 1 kPa
463.43 K	101.3 ± 5.2 kPa
463.45 K	100.76 ± 1 kPa and 101.3 ± 1.1 kPa

O [water]
Settings	refractive index
[1]	1.3312 ± 0.004

[2]
Settings	vapor or sublimation pressure
320.37 K	10.74 ± 1 kPa
324.33 K	13.09 ± 1 kPa
326.63 K	14.66 ± 1 kPa
328.29 K	15.86 ± 1 kPa
333.57 K	20.33 ± 1 kPa
340.16 K	27.37 ± 1 kPa
343.85 K	32.16 ± 1 kPa
345.44 K	34.4 ± 1 kPa
347.83 K	38.07 ± 1 kPa
349.4 K	40.62 ± 1 kPa
351.8 K	44.82 ± 1 kPa
354.68 K	50.37 ± 1 kPa
358.64 K	58.91 ± 1 kPa
361.08 K	64.72 ± 1 kPa
362.59 K	68.63 ± 1 kPa
367.87 K	83.63 ± 1.1 kPa
373.15 K	101.31 ± 1.1 kPa and 101.3 ± 1.1 kPa

CC#N [acetonitrile]
Settings	mass density [kg/m3]	refractive index
[1]	–	1.3425 ± 0.004
[2]	782 ± 2	–

[2]
Settings	vapor or sublimation pressure
307.22 K	18.08 ± 1 kPa
311.3 K	21.45 ± 1 kPa
314.05 K	24 ± 1 kPa
316.73 K	26.73 ± 1 kPa
320.8 K	31.35 ± 1 kPa
323.52 K	34.82 ± 1 kPa
325.8 K	37.88 ± 1 kPa
328.95 K	42.59 ± 1 kPa
330.5 K	45.06 ± 1 kPa
333.02 K	49.34 ± 1 kPa
335.2 K	53.31 ± 1 kPa
338.45 K	59.68 ± 1 kPa
341.17 K	65.47 ± 1 kPa
343.43 K	70.59 ± 1 kPa
346.6 K	78.43 ± 1 kPa
350.67 K	89.46 ± 1 kPa
354.75 K	101.64 ± 1 kPa and 101.3 ± 1.1 kPa

Reference: the NIST ThermoML archive (doi:10.1021/je400531a)
